# Measurements reported in US12161648B2, “Covalent targeting of E3 ligases” (The Regents of the University of California, priority 2018, dated 2024).
# Columns and labels:
# RNF114 [1] = target: T1, RNF114 (Homo sapiens, UniProt Q9Y508); test: Gel-based ABPP, nimbolide probe labeling of pure RNF114; type: binding; conditions: probe 10 μM, 1 h
# T1 construct: Myc; FLAG; purchased Origene
# RNF4 [2] = target: T2, RNF4 (Homo sapiens, UniProt P78317); test: Gel-based ABPP, competition against IA-rhodamine labeling of pure RNF4; type: binding
# T2 construct: purchased Boston Biochem K-220
# T2 sequence (P78317 1-190): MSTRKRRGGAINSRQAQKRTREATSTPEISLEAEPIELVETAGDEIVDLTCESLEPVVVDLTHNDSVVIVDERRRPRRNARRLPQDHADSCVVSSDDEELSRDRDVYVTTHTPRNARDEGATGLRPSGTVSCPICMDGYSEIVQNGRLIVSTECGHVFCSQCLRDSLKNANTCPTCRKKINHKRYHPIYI
# Procedure: Gel-Based ABPP. Gel-based ABPP methods were performed as previously described^5,6,25,26. Pure recombinant human RNF4 was purchased from Boston Biochem (K-220). RNF4 (0.25 μg) was diluted into 50 μL of PBS and 1p L of either DMSO (vehicle) or covalently acting small molecule to achieve the desired concentration. After 30 minutes at room temperature, the samples were treated with 250 nM IA-Rhodamine (Setareh Biotech, 6222, prepared in anhydrous DMSO) for 1 h at room temperature. Samples were then diluted with 20 μL of 4× reducing Laemmli SDS sample loading buffer (Alfa Aesar) and heated at 90° C. for 5 min. The samples were separated on precast 4-20% Criterion TGX gels (Bio-Rad Laboratories, Inc.). Fluorescent imaging was performed on a ChemiDoc MP (Bio-Rad Laboratories, Inc) inhibition of target labeling was assessed by densitometry using ImageJ.
# RNF4 [3] = target: T2, RNF4; test: RNF4 in vitro auto-ubiquitination assay; type: biochemical; conditions: 100 μM pre-incubation
# Procedure: RNF4 ubiquitination assay. […] Subsequently, UBE1 (50 nM, Boston Biochem, E-305), UBE2D1 (400 nM Boston Bichem, E2-615), Flag-ubiquitin (4000 nM, Boston Biochem, U-120) and ATP (200 μM) were added in ubiquitination assay buffer bring the total volume to 30 μL. The mixture was incubated at RT for 30 min before quenching with 10 μL of 4× Laemmli's buffer. Ubiquitination activity was measured by separation on an SDS-PAGE gel and western blotting as previously described.
# RNF4 [4] = target: T2, RNF4; test: LC-MS/MS analysis of covalent adduct on RNF4; type: binding; conditions: 50 μM, 30 min, tryptic digests
# Procedure: LC-MS/MS analysis of RNF4. Purified RNF4 (10 μg) was diluted into 80 μL of PBS and treated for 30 min with DMSO or compound (50 μM). […] The samples were precipitated by additional of 20 μL of 100% (w/v) TCA and combined pairwise before cooling to −80 C for one hour.
# 231MFP cells = test: Survival and proliferation assay (Hoechst stain), 231MFP; type: cell-based, human; conditions: 48 h
# Procedure: Survival and Proliferation Assays. Cell survival and proliferation assays were performed as previously described using Hoechst 33342 dye (Invitrogen) according to manufacturer's protocol and as previously described^62. 231MFP cells were seeded into 96-well plates (40,000 for survival and 20,000 for proliferation) in a volume of 150 μl and allowed to adhere overnight. Cells were treated with an additional 50 μL of media containing 1:250 dilution of 1000× compound stock in DMSO. After the appropriate incubation period, media was removed from each well and 100 μl of staining solution containing 10% formalin and Hoechst 33342 dye was added to each well and incubated for 15 min in the dark at room temperature. After incubation, staining solution was removed, and wells were washed with PBS before imaging.
# Survival and Proliferation Assays. Cell survival and proliferation assays were performed as previously described using Hoechst 33342 dye (Invitrogen) according to manufacturer's protocol and as previously described^14. 231MFP cells were seeded into 96-well plates (40,000 for survival and 20,000 for proliferation) in a volume of 150 μl and allowed to adhere overnight. Cells were treated with an additional 50 μL of media containing 1:250 dilution of 1000× compound stock in DMSO. […]
# RNF114 [5] = test: RNF114 ubiquitination assay; type: biochemical, human; conditions: 50 μM, wild-type or C8A mutant RNF114
# Procedure: RNF114 ubiquitination assay. Recombinant Myc-Flag-RNF114 proteins were either purified from HEK292T cells as described above or purchased from Origene (Origene Technologies Inc., TP309752). For in vitro auto-ubiquitination assay, 0.2 μg of RNF114 in 25 μL of TBS was pre-incubated with DMSO vehicle or the covalently-acting compound for 30 min at room temperature. Subsequently, 0.1 μg of UBE1 (Boston Biochem. Inc, E-305), 0.1 μg UBE2D1 (Boston Bichem. Inc, e2-615), 5 μg of Flag-ubiquitin (Boston Bichem. Inc, u-120) in a total volume of 25 μL Tris buffer containing 2 mM ATP were added to achieve a final volume of 50 μL. The mixture was incubated at 37° C. with agitation for 1.5 h. 20 μL of Laemmli's buffer was added to quench the reaction and proteins were analyzed by western blot assay.
# RNF114 [6] = target: T1, RNF114; test: Gel-based ABPP, competition against JNS27 labeling of pure RNF114; type: binding; conditions: covalent ligands 50 μM
# Procedure: (§1) Gel-Based ABPP. Gel-based ABPP methods were performed as previously described^34,62,63,67. Recombinant pure human proteins were purchased from Origene. […] CuAAC was performed to append rhodamine-azide (1 μM final concentration) onto alkyne probe-labeled proteins. Samples were then diluted with 20 μL of 4× reducing Laemmli SDS sample loading buffer (Alfa Aesar) and heated at 90° C. for 5 min. The samples were separated on precast 4-20% TGX gels (Bio-Rad Laboratories, Inc.). Prior to scanning by ChemiDoc MP (Bio-Rad Laboratories, Inc), gels were fixed in a solution of 10% acetic acid, 30% ethanol for 2 hrs. Inhibition of target labeling was assessed by densitometry using ImageJ.
# as §1, with “described^14.” for “described^34,62,63,67.”
# [7] = system: 231MFP breast cancer cell proteomes; test: isoTOP-ABPP proteome-wide selectivity in 231MFP proteomes in vitro; type: binding, human; conditions: 50 μM
# 231MFP tumor xenograft = 231MFP tumor xenograft growth in SCID mice; type: in vivo; conditions: 50 mg/kg ip, once per day, from day 17
# Procedure: Tumor xenograft studies. Human tumor xenografts were established by transplanting cancer cells ectopically into the flank of female C.B17 severe combined immunodeficiency (SCID) mice (Taconic Farms) as previously described^66,69 In brief, cells were washed with PBS, trypsinized, and harvested in serum-containing medium. Harvested cells were washed in serum-free media and resuspended in serum-free media at a concentration of 2.0×10^4 cells/μl, and 100 μl was injected subcutaneously into the flank of each mouse. Tumors were measured with calipers. Animal experiments were conducted in accordance with the guidelines of the Institutional Animal Care and Use Committees of the University of California, Berkeley.
# T1 sequence (Q9Y508 whole entry): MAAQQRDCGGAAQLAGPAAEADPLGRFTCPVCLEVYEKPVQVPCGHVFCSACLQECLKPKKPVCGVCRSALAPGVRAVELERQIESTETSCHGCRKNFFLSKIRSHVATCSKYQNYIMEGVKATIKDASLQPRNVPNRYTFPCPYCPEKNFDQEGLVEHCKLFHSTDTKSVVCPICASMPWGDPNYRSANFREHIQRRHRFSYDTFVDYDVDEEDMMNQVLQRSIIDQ
smiles,measurement,setting,value
C#CCNC(=O)c1ccc(-c2occc2[C@@H]2C[C@H]3O[C@@H]4[C@@H]5OC(=O)[C@]6(C)C=CC(=O)[C@](C)([C@@H](CC(=O)OC)[C@]4(C)C3=C2C)[C@@H]56)cc1 [nimbolide probe],probe labeling of pure RNF114,RNF114 [1],reacts with pure human RNF114
O=C(CCl)Nc1ccc(Oc2ccccc2)cc1 [TRH 1-23],potency to be useful as an RNF4 recruiter,RNF4 [2],did not show sufficient potency
same,inhibition of IA-rhodamine labeling of RNF4,RNF4 [2]; confirmation of screening hits,reproducible and dose-responsive inhibition
same,hits from covalent ligand screen against IA-rhodamine labeling of RNF4,"RNF4 [2]; covalent ligands 50 μM, 30 min pre-incubation, IA-rhodamine 250 nM 1 h",potential hits
same,RNF4 autoubiquitination activity,RNF4 [3],does not inhibit
same,site-of-modification within RNF4,RNF4 [4],"covalently modified either, but not both, of the two zinc-coordinating cysteines CI32 and CI35"
C=CC(=O)NCc1ccc(C(=O)Nc2sc(-c3ccccc3)c(C)c2C(=O)N2CCCCC2)cc1 [EN62],231MFP breast cancer cell survival,231MFP cells,impaired
same,RNF114 autoubiquitination activity,RNF114 [5],inhibited
same,hit from covalent ligand screen against RNF114,RNF114 [6],promising hit
same,proteome-wide selectivity,[7],exhibited proteome-wide selectivity
same,231MFP tumor xenograft growth,231MFP tumor xenograft,attenuated
